Read-outs that look alike come from different tables or passages of the source.
Target: T1, Syk (Homo sapiens, UniProt P43405)
T1 construct: purchased Carna Biosciences
Assay: Syk HTRF assay
Format: biochemical
Method in brief: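 Read-out is the 665 nm/615 nm time-resolved fluorescence ratio after EDTA stop and Eu-anti-phosphotyrosine plus streptavidin-DyLight 647 detection. Reaction ran 1 h at room temperature with start mix of 87.5 μM ATP and 80 nM substrate peptide in pH 7.6 HEPES/MgCl2 buffer.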

[1] = activity levels A-D, read-out: Activity Level (IC50 in the Syk HTRF assay)
[2] = IC50 activity level, read-out: Activity Level
[3] = read-out: Activity Level (Syk HTRF assay IC50)

SMILES	IC50 [1] [nM]	IC50 [3] [nM]	further results
O[C@H]1CC[C@@H](Nc2cccc3nc(Nc4cccc(Cl)c4)nn23)CC1 [Example 354, cis-4-(2-(3-chlorophenylamino)-[1,2,4]triazolo[1,5-a]pyridin-5-ylamino)cyclohexanol]	0.005 to 250		
FC(F)(F)c1ccc(Nc2nc3cccc(-c4cnc5nc[nH]c5c4)n3n2)cc1 [Example 380, 5-(1H-imidazo[4,5-b]pyridin-6-yl)-N-(4-(trifluoromethyl)phenyl)-[1,2,4]triazolo[1,5-a]pyridin-2-amine]	0.005 to 250		
NC(=O)[C@H]1CC[C@@H](Nc2cccc3nc(Nc4ccccc4)nn23)CC1 [Example 519, cis-4-(2-(phenylamino)-[1,2,4]triazolo[1,5-a]pyrridin-5-ylamino)cyclohexanecarboxamide]			IC50 [2]: 1000 to 10000 nM
CC(=O)Nc1cccc2nc(Nc3ccccc3)nn12 [Example 527, N-(2-(phenylamino)-[1,2,4]triazolo[1,5-a]pyridin-5-yl)acetamide]			IC50 [2]: 500 to 1000 nM
c1ccc(Nc2nc3cccc(C4CCCCC4)n3n2)cc1 [Example 525, 5-cyclohexyl-N-phenyl-[1,2,4]triazolo[1,5-a]pyridin-2-amine]			IC50 [2]: 1000 to 10000 nM
OC1CCCC[C@H]1Nc1cccc2nc(Nc3ccc(C(F)(F)F)cc3)nn12 (stereo in doubt) [Example 270, (1S,2R)-2-(2-(4-(trifluoromethyl)phenylamino)-[1,2,4]triazolo[1,5-a]pyridin-5-ylamino)cyclohexanol]	1000 to 10000		
CN1C(=O)Cc2ccc(Nc3nc4cccc(N[C@H]5CC[C@@H](O)CC5)n4n3)cc21 [Example 192, cis-6-(5-(4-hydroxycyclohexylamino)-[1,2,4]triazolo[1,5-a]pyridin-2-ylamino)-1-methylindolin-2-one]		0.005 to 250	
COc1cncc(Nc2nc3cccc(N[C@H]4CC[C@@H](O)CC4)n3n2)c1 [Example 368, cis-4-(2-(5-methoxypyridin-3-ylamino)-[1,2,4]triazolo[1,5-a]pyridin-5-ylamino)cyclohexanol]	500 to 1000		
OC[C@H]1CCN(c2cccc3nc(Nc4ccc(C(F)(F)F)cc4)nn23)C1 [Example 327, (S)-(1-(2-(4-(trifluoromethyl)phenylamino)-[1,2,4]triazolo[1,5-a]pyridin-5-yl)pyrrolidin-3-yl)methanol]	250 to 500		
OC1CCN(c2ccc(Nc3nc4cccc(N[C@H]5CC[C@@H](O)CC5)n4n3)cn2)CC1 [Example 294, cis-1-(5-(5-(4-hydroxycyclohexylamino)-[1,2,4]triazolo[1,5-a]pyridin-2-ylamino)pyridin-2-yl)piperidin-4-ol]	0.005 to 250		
Cc1n[nH]c2cc(Nc3nc4cccc(O[C@@H]5COC[C@@H]5O)n4n3)ccc12 (racemic) [Example 165, (±)-cis-4-(2-(3-methyl-1H-indazol-6-ylamino)-[1,2,4]triazolo[1,5-a]pyridin-5-yloxy)tetrahydrofuran-3-ol]		250 to 500	
CC(C)Nc1cccc2nc(Nc3ccccc3)nn12 [Example 530, N^5-isopropyl-N^2-phenyl-[1,2,4]triazolo[1,5-a]pyrridine-2,5-diamine]			IC50 [2]: 500 to 1000 nM
NCCCCc1cccc2nc(Nc3ccccc3)nn12 [Example 505, 5-(4-aminobutyl)-N-phenyl-[1,2,4]triazolo[1,5-a]pyridin-2-amine]			IC50 [2]: 500 to 1000 nM

Continued, in another order:

IC50 [1] [nM]	IC50 [3] [nM]	SMILES	further results
	0.005 to 250	Cc1cc(Nc2nc3cccc(NC4CCOCC4)n3n2)cc2[nH]nc(C)c12 [compound 108]	
	1000 to 10000	CNC(=O)c1ccc(Nc2nc3cccc(-c4ccccc4Cl)n3n2)cc1 [compound 22, 4-(5-(2-chlorophenyl)-[1,2,4]triazolo[1,5-a]pyridin-2-ylamino)-N-methylbenzamide]	
	0.005 to 250	CN(c1cccc2nc(Nc3ccc4c(c3)NC(=O)C4(C)C)nn12)C1CCOC1 (stereo in doubt) [compound 121, (S)-3,3-dimethyl-6-(5-(methyl(tetrahydrofuran-3-yl)amino)-[1,2,4]triazolo[1,5-a]pyridin-2-ylamino)indolin-2-one]	
	500 to 1000	Fc1cccc(-c2cccc3nc(Nc4ccccc4)nn23)c1 [compound 81, 5-(3-fluorophenyl)-N-phenyl-[1,2,4]triazolo[1,5-a]pyridin-2-amine]	
